Source: patent US20190358264A1, “METHODS OF TREATING DISEASES ASSOCIATED WITH ILC2 CELLS” (Limm Therapeutics, SA, priority 2016, published 2019)

Key:
intestinal ILC2s = assay: Ki67 expression in intestinal ILC2s after in vitro stimulation with NmU23; assay type: cell-based, mouse; conditions: NmU23 100 ng/mL overnight
Protocol: FIGS. 10a-10d: FIG. 10a, Ki67 expression in intestinal ILC2s after an overnight in vitro stimulation with NmU23 alone (100 ng/mL, Phoenix Pharmaceutical) or NmU23 together with the survival cytokines Interleukin (IL)-2 and/or IL-7 (10 ng/mL). FIG. 10b, Ki67 expression in intestine ILC2 after in vivo administration of NmU23 (4 g/day during 2 days). n=5. FIG. 10c, ILC2-derived type 2 cytokines (IL-5, IL-13 and Amphiregulin (Areg)) in sorted intestine ILC2 after an overnight stimulation with NmU23, mouse recombinant IL-25 or IL-33 (R&D) (10, 50 and 100 ng/mL). Negative control: unstimulated ILC2, Positive control: ILC2 activated with phorbol 12-myristate 13-acetate (PMA, 50 ng/ml) plus ionomycin (500 ng/ml). n=3. FIG. 10d, Dot plots representative of the cytokine production with increasing dose of NmU23, rIL-25 and rIL-33. *P<0.05; **P<0.01; ***P<0.001; ****P<0.0001; ns not significant.
For in vitro experiments, purified lung and small intestine lamina propria ILC2s were FBS starved for 2 hours prior to stimulation and cultured in complete RPMI (supplemented with 10% foetal bovine serum (FBS), 1% hepes, sodium pyruvate, glutamine, streptomycin and penicillin) at 37° C. […] For in vivo experiments, B6 mice were injected intraperitoneal with NmU23 peptide (2 g/day) during Nippostrongylus brasiliensis infection or with a single dose of NmU23 (20 μg) and analyzed after 8 hours. […]

NFAT = NFAT translocation in ILC2 by confocal microscopy; assay type: cell-based, mouse; conditions: NmU23 100 ng/mL, 90 minutes, Lamina Propria ILC2, anti-NFAT2 staining (FIG. 11c)
Protocol: FIGS. 11a-11b: ILC2 were FBS deprived for 2 hours prior to treatment with either (FIG. 11a) 11R-VIVIT (inhibits NFAT activation) (10 μM) or (FIG. 11b) cyclosporin A (CsA, […]). Expression of type 2 cytokines were measured by quantitative RT-PCR (FIGS. 11a,11b). n=3-6. FIG. 11c, Deprivated ILC2 from Lamina Propria were stimulated 90′ with NmU23 (100 ng/mL), fixed, permeabilized and stained with anti-NFAT2 monoclonal antibody (abcam). Cells were analyzed by confocal microscopy. *P<0.05; **P<0.01; ***P<0.001; ****P<0.0001; ns not significant.

recombinant mouse Neuromedin U 23 peptide (FKAEYQSPSVGQSKGYFLFRPRN; listed as Mus musculus) [NmU23, NMUR1 agonist neuropeptide, Phoenix pharmaceuticals]
ILC2 proliferation as measured by Ki67, in vitro (intestinal ILC2s): increased ILC2 proliferation | translocation of NFAT in ILC2 (NFAT): efficient translocation of NFAT from the cytoplasm to the nucleus
